Measurements taken from ChEMBL document CHEMBL1201862, “PubChem BioAssay data set” (2004).
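How tested: cells in 96-well plates exposed to compound for 48 hours at five concentrations. GI50 = concentration required for 50% inhibition of growth.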 The source made the active and inactive calls. Rule as the data show it: active = GI50 up to about 1.1 µM and inactive = higher.

Legend:
Assay in all cases: NCI tumour cell line growth inhibition, 48 h
CAKI-1 = test system: CAKI-1
NCI-H23 = test system: NCI-H23
Malme-3M = test system: Malme-3M
NCI/ADR-RES = test system: NCI/ADR-RES
T47D = test system: T47D
A498 = test system: A498
SK-MEL-2 = test system: SK-MEL-2
SNB-75 = test system: SNB-75
NCI-H522 = test system: NCI-H522
HOP-92 = test system: HOP-92
OVCAR-4 = test system: OVCAR-4
OVCAR-8 = test system: OVCAR-8
BT-549 = test system: BT-549
U-251 = test system: U-251
SK-MEL-5 = test system: SK-MEL-5
HCT-15 = test system: HCT-15
HCT-116 = test system: HCT-116
SF-539 = test system: SF-539
CCRF-CEM = test system: CCRF-CEM
SK-OV-3 = test system: SK-OV-3

SMILES	GI50 (CAKI-1)	GI50 (NCI-H23)	GI50 (Malme-3M)	GI50 (NCI/ADR-RES)	GI50 (T47D)	GI50 (A498)	GI50 (SK-MEL-2)	GI50 (SNB-75)	GI50 (NCI-H522)	GI50 (HOP-92)	GI50 (OVCAR-4)	GI50 (OVCAR-8)	GI50 (BT-549)	GI50 (U-251)	GI50 (SK-MEL-5)	GI50 (HCT-15) [µM]	GI50 (HCT-116)	GI50 (SF-539)	GI50 (CCRF-CEM)	GI50 (SK-OV-3)
CN(C)c1ccc(/C=C/C(=O)c2ccc(O)cc2)cc1	12.9 µM (inactive)	11.3 µM (inactive)	8.45 µM (inactive)	2.98 µM (inactive)	13.5 µM (inactive)	17.1 µM (inactive)	14 µM (inactive)	5.2 µM (inactive)	2.71 µM (inactive)	38.2 µM (inactive)	24.2 µM (inactive)	7.29 µM (inactive)	6.08 µM (inactive)	3.99 µM (inactive)	6.58 µM (inactive)	2.94	3.69 µM (inactive)	3.2 µM (inactive)	2.83 µM (inactive)	4.78 µM (inactive)
Cc1ccc(-c2nnc(-c3ccc4ccccc4c3)o2)cc1	5.19 µM (inactive)	> 100 µM (inactive)	5.38 µM (inactive)	12.7 µM (inactive)	19.2 µM (inactive)	> 100 µM (inactive)	2.92 µM (inactive)	6.7 µM (inactive)	69.7 µM (inactive)	> 51.6 µM (inactive)	40.3 µM (inactive)	12.4 µM (inactive)	13.7 µM (inactive)	27.7 µM (inactive)	> 96.2 µM (inactive)	> 96.8	23.6 µM (inactive)	19.6 µM (inactive)	3.55 µM (inactive)	56.2 µM (inactive)
CN(N=O)c1ccc(/C=C/c2ccnc3ccccc23)cc1	42.3 µM (inactive)	> 100 µM (inactive)	86.3 µM (inactive)	83.4 µM (inactive)	50.4 µM (inactive)	60.4 µM (inactive)	> 100 µM (inactive)	25.1 µM (inactive)	46.6 µM (inactive)	> 100 µM (inactive)	> 100 µM (inactive)	58.1 µM (inactive)	> 100 µM (inactive)	54.8 µM (inactive)	37.1 µM (inactive)	54.2	34 µM (inactive)	88.5 µM (inactive)	47.3 µM (inactive)	> 100 µM (inactive)
O=[N+]([O-])c1cccc2nc3ccccc3c(NCCCN3CCOCC3)c12	0.0221 µM (active)	< 0.0129 µM (active)	0.0142 µM (active)	0.044 µM (active)	0.0355 µM (active)	< 0.0146 µM (active)	0.0194 µM (active)	0.0387 µM (active)	0.0168 µM (active)	0.0159 µM (active)	0.0191 µM (active)	0.012 µM (active)	0.0273 µM (active)	0.0276 µM (active)	< 0.0114 µM (active)	< 0.0104	< 0.01 µM (active)	0.0283 µM (active)	< 0.0199 µM (active)	0.0362 µM (active)
C=CC1(CC/C(=C\[N+](=O)[O-])c2ccc(OC)c(OC)c2)OCC(C)(C)CO1	23.2 µM (inactive)	14.1 µM (inactive)	23.2 µM (inactive)	13.9 µM (inactive)	14.5 µM (inactive)	> 10 µM (inactive)	19.1 µM (inactive)		13.8 µM (inactive)	18.2 µM (inactive)	11.6 µM (inactive)	15.2 µM (inactive)	13.8 µM (inactive)	23.1 µM (inactive)	13.1 µM (inactive)	12.7	18.9 µM (inactive)		7.57 µM (inactive)	22.4 µM (inactive)
CC1OC(O[C@H]2CC[C@]3(C)[C@H]4CC=C5[C@@H]6[C@@H](C)[C@H](C)CC[C@]6(C(=O)OC6OC(CO)C(O)C(O)C6O)CC[C@@]5(C(=O)O)[C@]4(C)CC[C@H]3C2(C)C)C(O)C(O)C1O (stereo partly specified)	> 100 µM (inactive)	> 100 µM (inactive)		> 100 µM (inactive)	> 100 µM (inactive)	> 100 µM (inactive)	> 100 µM (inactive)	> 100 µM (inactive)	> 100 µM (inactive)	> 100 µM (inactive)	> 100 µM (inactive)	> 100 µM (inactive)	> 100 µM (inactive)	> 100 µM (inactive)	> 100 µM (inactive)	> 100	> 100 µM (inactive)	> 100 µM (inactive)	> 100 µM (inactive)	> 100 µM (inactive)
CC(=O)O[C@H]1C[C@@H](OC(C)=O)[C@@](C)(O)[C@@H]2[C@@H](OC(C)=O)[C@@]3(O)[C@H](/C=C(/CO)[C@H]4O[C@H]4[C@@H](OC(C)=O)[C@@]12C)OC(=O)[C@@H]3C	17.7 µM (inactive)	16.8 µM (inactive)	7.78 µM (inactive)	> 25 µM (inactive)	22.4 µM (inactive)	> 25 µM (inactive)	6.89 µM (inactive)	5.53 µM (inactive)	5.42 µM (inactive)	17.5 µM (inactive)	> 25 µM (inactive)	12.7 µM (inactive)	> 25 µM (inactive)	6.1 µM (inactive)	9.25 µM (inactive)	9.1	10.3 µM (inactive)		6.59 µM (inactive)	11.9 µM (inactive)
COC(=O)C12C3C4C1C1C2C3C41C(=O)NC(C)(C)CC(=O)O (stereo unspecified)	> 100 µM (inactive)	> 100 µM (inactive)	> 100 µM (inactive)	> 100 µM (inactive)	> 100 µM (inactive)	> 100 µM (inactive)	> 100 µM (inactive)	> 100 µM (inactive)	> 100 µM (inactive)	> 100 µM (inactive)	> 100 µM (inactive)	> 100 µM (inactive)	> 100 µM (inactive)	> 100 µM (inactive)	> 100 µM (inactive)	> 100	> 100 µM (inactive)	> 100 µM (inactive)	> 100 µM (inactive)	
NS(=O)(=O)c1nnc(/N=C(/CCC(=O)O)C(=O)O)s1	> 100 µM (inactive)	> 100 µM (inactive)	41.3 µM (inactive)	> 100 µM (inactive)	> 100 µM (inactive)	> 100 µM (inactive)	> 100 µM (inactive)	> 100 µM (inactive)	> 100 µM (inactive)	> 100 µM (inactive)	> 100 µM (inactive)	> 100 µM (inactive)	> 100 µM (inactive)	> 100 µM (inactive)	> 100 µM (inactive)	> 100	> 100 µM (inactive)	> 100 µM (inactive)	> 100 µM (inactive)	> 100 µM (inactive)
CC(C)(C)OC(=O)NC(CCC(=O)OCc1ccccc1)C(=O)NCCCO (stereo unspecified)	> 100 µM (inactive)	> 100 µM (inactive)	> 100 µM (inactive)	> 100 µM (inactive)	> 100 µM (inactive)	> 100 µM (inactive)	> 100 µM (inactive)	> 100 µM (inactive)	> 100 µM (inactive)	> 100 µM (inactive)	> 100 µM (inactive)	> 100 µM (inactive)	> 100 µM (inactive)	> 100 µM (inactive)	> 100 µM (inactive)	> 100	> 100 µM (inactive)	> 100 µM (inactive)	> 100 µM (inactive)	> 100 µM (inactive)
O=c1c(=O)c2c(Br)sc(Br)c2c1=O	19.1 µM (inactive)	20.3 µM (inactive)	17.7 µM (inactive)	32.7 µM (inactive)	20 µM (inactive)	> 100 µM (inactive)	20.8 µM (inactive)	28.9 µM (inactive)	16.1 µM (inactive)	17.9 µM (inactive)	16.4 µM (inactive)	18.3 µM (inactive)	19.4 µM (inactive)	23.6 µM (inactive)	16.9 µM (inactive)	19.4	20.1 µM (inactive)	19.5 µM (inactive)		43.8 µM (inactive)
CC(C)(C)OC(=O)N(CCCCNC(=O)C(F)(F)F)CCCNC(=O)C(F)(F)F	> 100 µM (inactive)	> 100 µM (inactive)		> 100 µM (inactive)	> 100 µM (inactive)	> 100 µM (inactive)	> 100 µM (inactive)	> 100 µM (inactive)	> 100 µM (inactive)	> 100 µM (inactive)	> 100 µM (inactive)	> 100 µM (inactive)	> 100 µM (inactive)	> 100 µM (inactive)	> 100 µM (inactive)	> 100	> 100 µM (inactive)	> 100 µM (inactive)	> 100 µM (inactive)	> 100 µM (inactive)
NCCNCCCNC(=O)c1cc(-c2ccccc2)nc2ccccc12	52.4 µM (inactive)	30.6 µM (inactive)	16.8 µM (inactive)	> 100 µM (inactive)	38.5 µM (inactive)	41.7 µM (inactive)	21 µM (inactive)	> 10 µM (inactive)	17.6 µM (inactive)	13.7 µM (inactive)		85.5 µM (inactive)	55.8 µM (inactive)	17.6 µM (inactive)	15.6 µM (inactive)	> 100	35.6 µM (inactive)	19.6 µM (inactive)	21 µM (inactive)	65 µM (inactive)
COCC([C@@H](O)C(O)C(=O)NCC[C@@H](C)c1nc(/C=C/CC2OC3(C[C@H](O)C2C)OC(C(C[C@H](O)C(C)[C@H](O)C(C)/C=C(C)/C(C)=C/C=C/C(C)=C/C#N)OC)[C@@H](OP(=O)(O)O)C3(C)C)co1)N(C)C (stereo partly specified)	0.000174 µM (active)	0.000762 µM (active)	0.000174 µM (active)	0.00107 µM (active)	0.000703 µM (active)	0.00188 µM (active)	0.000188 µM (active)	0.000182 µM (active)	0.000167 µM (active)	0.000175 µM (active)	0.00137 µM (active)	0.000208 µM (active)	0.000167 µM (active)	0.000191 µM (active)	0.000159 µM (active)	0.000202	0.000177 µM (active)	0.000189 µM (active)		0.000474 µM (active)
